From patent US6998413B1, “Treatment of neoplasms with yujungamycins” (priority 1999, dated 2006)
Entries after “also recorded” stand apart in the source; their conditions may differ.

Experiments:
[1] = tested on: Poly [dG] Poly [dC]; experiment: Alkylation of DNA by reduced PBIs; type: biochemical; conditions: reduced PBI (H2, Pd on carbon), pH 7.4 tris buffer, 30° C., 24 h
Method: (§1) Alkylation of DNA by Reduced PBIs. To a mixture of 1–2 mg of DNA (poly[dA]. poly[dT], poly[dG]. poly[dC], poly[dA-dT]. poly[dT-dA]) in 2.0 mL of 0.05 M of pH 7.4 tris buffer and 2 mg of Pd on carbon was added a five-to-one base pair equivalent amount of the PBI dissolved in 0.5 mL of dimethylsulfoxide. The resulting solution was degassed under argon for 30 min., after which the mixture was purged with H2 for 10 min. The solution was then purged with argon for 10 min. and the placed in a 30° C. bath for 24 h. The reaction was opened to the air and the catalyst was removed with a Millex-PF […] syringe filter. The filtrate was adjusted to 0.3M acetate with a 3M stock solution of pH 5.1 acetate and the diluted with two volumes of ethanol. The mixture was chilled at −20° C. for 12 h and the DNA pellet collected by centrifuging at 12,000 g for 20 min. The pellet was redissolved in water and then precipitated and centrifuged again. The resulting pellet was suspended in ethanol, centrifuged, and dried.

[2] = tested on: Poly [dA] Poly [dT]; experiment: Alkylation of DNA by reduced PBIs; type: biochemical; conditions: reduced PBI (H2, Pd on carbon), pH 7.4 tris buffer, 30° C., 24 h
Method: as §1

[3] = tested on: DT-diaphorase; experiment: DT-Diaphorase reduction kinetics; type: biochemical; conditions: pH 7.4 tris.HCl, anaerobic, 30° C., 0.3 mM NADH, 14.5 nM enzyme active sites
Method: DT-Diaphorase Reduction Kinetics Studies. Kinetic studies were carried out in 0.05 M pH 7.4 tris.HCl buffer, under anaerobic conditions, employing Thunberg cuvettes. A 2 mM stock solution of the appropriate PBI or APBI was prepared in dimethyl sulfoxide (DMSO). To the top port was added the quinone stock and to the bottom port was added DT-diaphorase and NADH in the tris buffer. The top and bottom ports were purged with argon for 20 minutes and equilibrated to 30° C. The ports were then mixed and the reaction followed at 296 nm for 25 minutes to obtain initial rates. The concentrations upon after mixing were 0.3 mM NADH, 1 to 20×10^-5 M quinone, and 14.5 nM (based on flavin) of enzyme active sites. The value of Δε was calculated from the initial and final absorbance values for complete quinone reduction, usual value for Δε is 6000 to 8000 M−1 cm−1. The value of Δε was used to calculate Vmax in M sec-1. The results were fitted to a Lineweaver-Burke plot from which kcat/Km values were calculated based on 14.5 nM of active sites.

[4] = tested on: cancer cell lines; experiment: Cytotoxicity (−log LC50) against cancer cell lines by cancer type; type: cell-based; conditions: for cytotoxicity (in words): cancer cell lines, FIG. 2 and FIG. 4
Text: Each −log LC50 value is the average of up to eight values.
FIG. 4. illustrates the plots of −Log LC50 versus cancer type for S(−)-1, 2, 3. Each cancer type represents the average of six to eight different cancer cell lines.

[5] = tested on: Human tumor cells; experiment: Hollow fiber assay (in vivo screen, National Cancer Institute); conditions: for Total Score (hollow fiber score): 12 cell lines × 2 sites × 2 doses, highest possible score 96; for Intraperitonal Score: fibers implanted intraperitoneally; for Intraperitonal Score / Subcutaneous Score: IP dosing QD×4, high and low dose, score of two per test with % T/C of 50 or less; for Subcutaneous Score: fibers implanted subcutaneously; for Cancer cell line types sensitive: hollow fiber assay
Method: Hollow fiber assays are carried out in the following way. Human tumor cells are cultivated in polyvinylidene fluoride hollow fibers, and a sample of each cell line is implanted into each of two physiological compartments (intraperitoneally and subcutaneously). Mice are treated with either a high or a low dose using a QD×4 schedule (four daily treatments) administered intraperitoneally. Altogether, twelve cell lines are studied resulting in 48 possible test combinations (12 cell lines×2 sites×2 doses). […] These compounds are covered by two patents. (Skibo, E. B. and Islam, I. Synthesis and Elucidation of Azamitosene and Iminoazamitosene. U.S. Pat. No. 5,015,742 1991; Skibo, E. B., Islam, I. and Alberts, D. S., Antineoplastic Agents and Methods of Using the Same. U.S. Pat. No. 5,246,955, 1993).

[6] = tested on: B-16 melanoma; experiment: B-16 melanoma model (syngraft) in C57/bl mice; type: in vivo; conditions: 1 and 3 mg/Kg IP on days 1, 5, and 9 after tumor implantation into front flank muscle
Method: These compounds were studied at two dose levels: 1 and 3 mg/Kg IP on days 1, 5, and 9 after tumor implantation into the front flank muscle. Shown in the bar graph is the area under the tumor versus time curve plotted against dose for each enantiomer.

| Compound | Vmax [3] [nM/s] | Percentages of PBI Incorporation into DNA [1] [%] | Percentages of PBI Incorporation into DNA [2] [%] | Total Score (hollow fiber score) [5] | Intraperitonal Score [5] | Subcutaneous Score [5] | also measured |
| --- | --- | --- | --- | --- | --- | --- | --- |
| 3-Amino-6-azindinyl-2,3-dihydro-7-methyl-1H-pyrrolo[1,2-a]benzimidazole-5,8-dione [R(+)-B] | 14.6 | – | – | – | – | – | Percentages of PBI Incorporation into DNA ([1]; listed as R(+)−B): 105%; Percentages of PBI Incorporation into DNA ([2]; listed as R(+)−B): 60% |
| 3-Amino-6-azindinyl-2,3-dihydro-7-methyl-1H-pyrrolo[1,2-a]benzimidazole-5,8-dione [S(−)-B] | – | – | – | – | – | – | Percentages of PBI Incorporation into DNA ([1]; listed as S(−)−B): 52%; Percentages of PBI Incorporation into DNA ([2]; listed as S(−)−B): 186% |
| 3-Amino-6-azindinyl-2,3-dihydro-7-methyl-1H-pyrrolo[1,2-a]benzimidazole-5,8-dione [Yujungamycin B] | – | – | – | – | – | – | cytotoxicity (in words) [4]: high potency; cytotoxicity (in words) ([4]; listed as 2): high cytotoxicity against non-small-cell lung, central nervous system, melanoma, ovarian, and renal cancers; change in cytotoxicity, 3-hydroxy changed to 3-amino ([4]; relative to the 3-hydroxy derivative): ˜million-fold change in cytotoxicity |
| 3-Carbamido-6-aziridinyl-2,3-dihydro-7-methyl-1H-pyrrolo[1,2-a]benzimidazole-5,8-dione [R(+)-C] | 39.3 | 17 | 31 | – | – | – | – |
| 3-Carbamido-6-aziridinyl-2,3-dihydro-7-methyl-1H-pyrrolo[1,2-a]benzimidazole-5,8-dione [S(−)-C] | 21.8 | 12.4 | 70 | – | – | – | – |
| CC(=O)OC1CCN2C1=NC1C(=O)C(N3CC3)=C(C)C(=O)C12 (centres unmarked) [PBI-A] | – | – | – | 48 | 40 | 8 | Cancer cell line types sensitive [5]: melanoma, NSC lung cancer, breast cancer, and ovarian cancer; activity in the hollow fiber assay / in vivo [5]: active in the hollow fiber assay |
| CC1=C(N2CC2)C(=O)c2nc3n(c2C1=O)CCC3OC(N)=O (centres unmarked) [PBI-B] | – | – | – | 30 | 24 | 6 | Cancer cell line types sensitive [5]: melanoma, NSC lung cancer, breast cancer, and ovarian cancer; activity in the hollow fiber assay / in vivo [5]: active in the hollow fiber assay |
| CC(=O)NC1CCn2c1nc1c2C(=O)C(C)=C(N2CC2)C1=O (stereo not drawn) [S(−)-A] | 47.6 | 6.6 | 17.4 | 52 | 38 | 14 | activity in B-16 melanoma model (area under the tumor versus time curve) ([6]; listed as S(−) Yujungamycin A): failed to show much difference in activity between the enantiomers; also recorded: no apparent differences between the enantiomers; activity in B-16 melanoma model (area under the tumor versus time curve) ([6]; listed as S(−)-Yujungamycin A): activity |
